From patent publication US10167262B2, “Herbicidal substituted 3-arylpyrazoles” (FMC CORPORATION, priority 2014, dated 2019)
“And” between values parts separate entries of the source, which are not always exact repeats. Equal values may be shown once.

Tests used:
[1] = test system: palmer pigweed (AMAPA, Amaranthus palmeri); assay: Test H postemergence mixture test of compound 39 with commercial herbicides, observed and Colby expected effect 0-100; assay type: in vivo; conditions: Cmpd 39 alone, 14 days after treatment
Text: (§1) This test evaluated the effect of mixtures of compound 39 with three commercial herbicides on five plant species. Seeds of plant species selected from corn (ZEAMD, Zea mays), soybean (GLXMA, Glycine max), palmer pigweed (AMAPA, Amaranthus palmeri), waterhemp (common waterhemp, AMATA, Amaranthus rudis), and Kochia (KCHSC, Kochia scoparia) were planted in pots containing Redi-Earth® planting medium (Scotts Company, 14111 Scottslawn Road, Marysville, Ohio 43041) comprising spaghnum peat moss, vermiculite, wetting agent and starter nutrients and treated with postemergence applications of test chemicals formulated in a non-phytotoxic solvent mixture which included a surfactant and applied using a volume of 299 L/ha. Each treatment was replicated four times. Treated plants and controls were maintained in a greenhouse using supplemental lighting to maintain a photoperiod of about 16 h; daytime and nighttime temperatures were about 24-30° C. and 19-21° C., respectively. Nutrients were applied using a balanced fertilizer applied through the watering system. At 14 days after treatment, all species were compared to controls and visually evaluated. Plant response ratings were calculated as the mean of the four replicates, are summarized in Tables H1 through H6, and are based on a scale of 0 to 100 where 0 is no effect and 100 is complete control. A dash (-) response means no test result.
(§2) Colby's Equation was used to determine the herbicidal effects expected from the mixtures. Colby's Equation (Colby, S. R. “Calculating Synergistic and Antagonistic Responses of Herbicide Combinations,” Weeds, 15(1), pp 20-22 (1967)) calculates the expected additive effect of herbicidal mixtures and for two active ingredients is of the form: Pa+b=Pa+Pb−(PaPb/100) • where • Pa+b is the percentage effect of the mixture expected from additive contribution of the individual components: • Pa is the observed percentage effect of the first active ingredient at the same use rate as in the mixture, and • Pb is the observed percentage effect of the second active ingredient at the same use rate as in the mixture. In the following Tables, rates are shown in grams of active ingredient per hectare (g a.i./ha); “Obsd.” is the observed effect. “Exp.” is the expected effect calculated from Colby's Equation.

[2] = test system: soybean (GLXMA, Glycine max); assay: as above; assay type: in vivo; conditions: Cmpd 39 alone, 14 days after treatment
Text: as §1, §2

## C#CCn1cc(C(=O)c2ccccc2)c(-c2cc(Cl)cc(Cl)c2)n1 [Compound 39, [3-(3,5-dichlorophenyl)-1-(2-propyn-1-yl)-1H-pyrazol-4-yl]phenylmethanone]
[1]; 16 g a.i./ha
  AMAPA Obsd. (observed effect): 55
[1]; 31 g a.i./ha
  AMAPA Obsd. (observed effect): 86 and 78
[1]; 62 g a.i./ha
  AMAPA Obsd. (observed effect): 79 and 76
[2]; 16 g a.i./ha
  GLXMA Obsd. (observed effect): 0
[2]; 31 g a.i./ha
  GLXMA Obsd. (observed effect): 0
[2]; 62 g a.i./ha
  GLXMA Obsd. (observed effect): 0
